In PMC10424242, “Macrocyclic Peptidomimetic Plasmepsin X Inhibitors with Potent In Vitro and In Vivo Antimalarial Activity” (Journal of Medicinal Chemistry, 2023):
Where two headings read alike, the source gives them in different places.

Experiments:
PMIV = PMIV (Plasmodium falciparum, UniProt Q8IM16); experiment: FRET-based PMIV inhibition assay; assay type: biochemical, P. falciparum
Protocol: (§1) A fluorescence resonance energy transfer (FRET)-based assay was performed to assess the ability of the compounds to inhibit PMIV, CatD, and BACE1. Serial dilutions of test compounds were dispensed in a white 96-well plate. […] The mixture was incubated for 20 min at 37 °C. […] IC50 values were calculated with GraphPad Prism 8.0 using the nonlinear regression, variable slope (four parameters). Compounds were tested in triplicate.

BACE1 = BACE1 (Homo sapiens, UniProt P56817); experiment: FRET-based BACE1 inhibition assay (selectivity counter screen); assay type: biochemical
Sequence of BACE1 (P56817 46-501): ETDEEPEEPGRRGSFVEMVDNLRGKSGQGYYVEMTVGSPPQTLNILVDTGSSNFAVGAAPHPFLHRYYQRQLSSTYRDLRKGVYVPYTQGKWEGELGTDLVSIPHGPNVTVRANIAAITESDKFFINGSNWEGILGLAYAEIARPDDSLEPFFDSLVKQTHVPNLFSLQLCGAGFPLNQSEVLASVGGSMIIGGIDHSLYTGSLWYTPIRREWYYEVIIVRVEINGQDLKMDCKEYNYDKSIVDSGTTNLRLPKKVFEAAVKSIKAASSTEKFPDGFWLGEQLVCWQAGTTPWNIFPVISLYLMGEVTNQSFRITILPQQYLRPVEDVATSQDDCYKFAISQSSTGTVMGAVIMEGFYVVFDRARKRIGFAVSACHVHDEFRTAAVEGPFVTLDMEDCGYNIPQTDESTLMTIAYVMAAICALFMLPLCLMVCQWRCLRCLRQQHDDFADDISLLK
Protocol: as §1

[1] = Plasma protein binding (rapid equilibrium dialysis); assay type: in vitro ADME; settings: pH 7.4, mouse plasma, 2 h at 37 °C
Protocol: Plasma protein binding was performed with rapid equilibrium dialysis (RED) device inserts containing a dialysis membrane with a molecular weight cut-off of 8000 Daltons. Inserts were placed in the single-use RED plate without prior preparation.
The test compound at a concentration of 5 μM was added to mouse plasma and dialyzed against phosphate-buffered saline (PBS, pH 7.4) for 2 h at 37 °C. Propranolol hydrochloride was used as a positive control (high PPB), and fluconazole was used as negative control (low PPB). After dialysis, the drug concentration in the buffer and plasma compartments was quantified by liquid chromatography and tandem mass spectrometry (LC-MS/MS) analysis.

[2] = Pharmacokinetics in mice (plasma, UPLC/MS/MS); assay type: in vivo; settings: female, NMRI, mouse, po, p.os 50 mg/kg
Protocol: Animals were weighed on the day of the treatment (before treatment) to calculate the required amount of compound for the corresponding dose. For tolerability and PK studies, the mice were dosed via a peroral (PO) bolus administration (volume 10 mL/kg).
For the pharmacokinetics experiment, blood samples were collected in tubes containing heparin. […] Tubes were centrifuged at +4 °C 10,000g for 3 min. Plasma samples were collected and stored at −20 °C until analysis.
Concentrations of VAD259 in mouse plasma were measured by ultra-performance liquid chromatography–tandem mass spectrometry using Waters Acquity UPLC H-class chromatograph coupled to the Waters Xevo TQ-S micro mass spectrometer using the Waters Acquity UPLC BEH-C18 column (2.1 mm × 50 mm, 1.7 μm). Mobile phase A was 0.1% aqueous formic acid, and mobile phase B was acetonitrile.
The mass spectrometer was operated in positive electrospray ionization mode (ESI+), and data acquisition was performed in multiple reaction monitoring (MRM) modes with ionization parameters as follows: capillary energy of 3.0 kV, cone voltage of 25 V, and collision energy of 20 eV.
Blood plasma samples were processed using plasma protein precipitation. Then, 20 μL of plasma was mixed with 300 μL of acetonitrile/methanol (3:1/v:v) mixture, and the sample was centrifuged at 1000g for 10 min. The supernatant was further diluted 3 times with 0.1% aqueous formic acid and subjected to UPLC/MS/MS analysis.

[3] = Drug blood concentrations in PfalcHuMice during efficacy testing; assay type: in vivo; settings: for total Cmin: PfalcHuMouse, 40 mg/kg p.o.
Protocol: The concentrations of drugs were measured in samples of peripheral blood (25 μL) taken at different times after the first dosing, mixed with 25 μL of Milli-Q H2O, and immediately frozen on a thermal block at −80 °C. The frozen samples were stored at −80 °C until analysis. Blood from control humanized mice was used for the preparation of standard curves, calibration, and quality control purposes. The drugs were extracted from 10 μL of lysates obtained by protein precipitation of blood samples using standard liquid–liquid extraction methods. The samples were analyzed by LC-MS/MS for quantification in a Waters Micromass UPLC-TQD (Waters, Manchester, U.K.). Blood concentration vs time was analyzed by non-compartmental analysis (NCA) using Phoenix WinNonlin vers.9.2 (Certara) or R or Excel (Microsoft), from which exposure-related values (tmax, Cmax, and AUC0–t) were estimated.

[4] = test system: maturation of RAP1, substrate of PMIX; experiment: Western blot of RAP1 maturation in treated schizonts; assay type: cell-based, P. falciparum; settings: 20 nM, 44 h
Text: Figure 4 Macrocycle PMX inhibitors have no effect on intraerythrocytic parasite maturation but prevent egress and maturation of SUB1. […] Scale bar, 20 μm. (B) Simplified schematic of proteolytic maturation of the egress effector SUB1. Conversion of the precursor form to p54 is through autocatalytic removal[32] of the prodomain region (PD), whereas conversion of p54 to p47 is mediated by PMX.[15],[16],[33] (C) Left, Western blot analysis of P. falciparum 3D7 schizonts allowed to mature in the presence of the indicated macrocycle compounds (20 nM), showing defective SUB1 maturation in parasites treated with the indicated macrocycle compounds. Right, Western blot of the same extracts probed with a monoclonal antibody (mAb) specific to the rhoptry protein RAP1, which is a substrate for cleavage by the related P. falciparum protease PMIX. The compounds had no discernible effect on the maturation of RAP1. The results shown are typical of 3 independent experiments.
(§2) Synchronous parasite cultures were cultured from ring to schizont stage (∼44 h) in the presence of DMSO alone (0.04% v/v; control) or macrocycle compounds (20 nM final concentration). Schizonts were isolated by Percoll enrichment (still in the presence of the test compound), then either immediately frozen or further incubated in the absence of the drug but in the presence of C2 (1 μM) for 1 h at 37°C in the absence of added RBCs or for 3.5 h in the presence of added RBCs. The schizonts without added RBCs were then frozen too, and all schizont samples were then thawed into CHAPS–urea extraction buffer, subjected to sodium dodecyl sulfate-polyacrylamide gel electrophoresis (SDS-PAGE), and analyzed by Western blot, probing with antibodies against SUB1 or RAP1. For schizonts cultured in the presence of added RBCs, ring formation was assessed in two ways: cultures were examined microscopically by Giemsa stain of thin films and were also fixed with glutaraldehyde and processed for quantification of ring formation by flow cytometry as described above.

[5] = test system: SUB1 p54 to p47 conversion (PMX activity); experiment: Washout assay, SUB1 maturation by Western blot; assay type: cell-based, P. falciparum; settings: 20 nM ∼44 h, C2 1 μM for 1 h
Protocol: The schizont cultures lacking added RBCs were supplemented with compound C2, which blocks the discharge of exonemes, the parasite secretory organelles in which PMX and SUB1 are stored before egress. The schizonts without added RBCs were sampled for Western blot analysis, while the schizont cultures containing RBCs were examined by microscopy and flow cytometry after a further 4 h in culture to quantify schizont rupture and new ring formation.
as §2

Sequence of PMIV (Q8IM16 122-449): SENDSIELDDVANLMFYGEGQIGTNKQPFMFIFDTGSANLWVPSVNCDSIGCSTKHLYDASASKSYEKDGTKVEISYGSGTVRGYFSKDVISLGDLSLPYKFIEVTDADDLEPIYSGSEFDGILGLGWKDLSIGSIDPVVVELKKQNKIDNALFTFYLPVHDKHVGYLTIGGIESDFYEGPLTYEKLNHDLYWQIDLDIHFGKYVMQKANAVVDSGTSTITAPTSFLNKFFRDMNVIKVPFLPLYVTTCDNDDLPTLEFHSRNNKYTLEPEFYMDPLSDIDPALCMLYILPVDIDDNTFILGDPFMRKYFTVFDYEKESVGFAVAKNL

Structure (SMILES): CCCN1CCCCCc2cccc(c2)C[C@@H]([C@H](O)CNC(C)(C)c2cccc(OC)c2)NC(=O)c2cccc(c2)C1=O [7k, (S)-4-((R)-1-Hydroxy-2-((2-(3-methoxyphenyl)propan-2-yl)amino)ethyl)-12-propyl-3,12-diaza-1,6(1,3)-dibenzenacyclotridecaphane-2,13-dione]
- IC50 (PMIV; Table 3, read-out: PMIV, nM (as listed in Table 3)): 17 ± 2 nM
- improvement of PMIV inhibitory potency (PMIV; compared to 7a): 3 fold
- IC50 (PMIV; read-out: PMIV, nM (IC50)): 17 ± 2 nM
- IC50 (BACE1): 2030 ± 100 nM
- fraction unbound at 2 h, 5 µM [1]: 0.0027
- AUC(0-t) at 6 h [2]: 218 ng·h/mL
- Cmax at 6 h [2]: 64 ng/mL
- Tmax at 6 h [2]: 1 h
- half-life at 6 h [2]: 53 min
- AUC(0-inf) at 6 h ([2]; read-out: AUC0-inf_obs): 222 ng·h/mL
- total Cmin ([3]; BID): 32 ng/mL
- total Cmin ([3]; TID): 85 ng/mL
- total Cmin ([3]; UID): 51 ng/mL
- pharmacokinetic modeling of concentrations over the period of administration ([3]; plasma concentration at 71.0, 72.5, 73.0 and 78.0 hours post-treatment): rapid absorption with no accumulation
- maturation of RAP (PMIX substrate) [4]: do not affect PMIX activity at these concentrations
- SUB1 p54 to p47 conversion after washout [5]: no conversion of SUB1 p54 to p47 occurred
